Our source for the mass density values is the NIST ThermoML archive (doi:10.1007/s10765-008-0390-4).

One may read the mass density as the mass of a sample divided by its volume.

The nature of data set [1]: xn = mol fraction of the nth substance listed. Particulars: 101 kPa, Liquid, x1 = 1.
The conditions of data set [2]: 101 kPa, Liquid.

Numbers after ± are expanded uncertainties.

With `CCCCO` [butan-1-ol] + c1ccccc1, the mass density in data set [1] (288.15 K) came out at 813.373 ± 0.24 kg/m3; in data set [1] (293.15 K), 809.573 ± 0.24 kg/m3; in data set [1] (298.15 K), 805.762 ± 0.25 kg/m3; in data set [1] (303.15 K), 801.923 ± 0.25 kg/m3; in data set [1] (308.15 K), 798.053 ± 0.25 kg/m3; in data set [1] (313.15 K) it was 794.147 ± 0.25 kg/m3.
In the case of `c1ccccc1` [benzene], the mass density in data set [2] (288.15 K) was 884.246 ± 0.15 kg/m3; in data set [2] (293.15 K) it was 878.918 ± 0.16 kg/m3; in data set [2] (298.15 K), 873.582 ± 0.16 kg/m3; in data set [2] (303.15 K), 868.233 ± 0.17 kg/m3; in data set [2] (308.15 K), 862.871 ± 0.17 kg/m3; in data set [2] (313.15 K), 857.498 ± 0.17 kg/m3.
`CCCCO` [butan-1-ol] + ClC(Cl)Cl: the mass density in data set [1] (288.15 K) is 813.373 ± 0.24 kg/m3; in data set [1] (293.15 K) it was 809.573 ± 0.24 kg/m3; in data set [1] (298.15 K) it was 805.762 ± 0.25 kg/m3; in data set [1] (303.15 K), 801.923 ± 0.25 kg/m3; in data set [1] (308.15 K) it was 798.053 ± 0.25 kg/m3; in data set [1] (313.15 K), 794.147 ± 0.25 kg/m3.
For `ClC(Cl)Cl` [trichloromethane], the mass density in data set [2] (288.15 K) is given as 1498.08 ± 0.47 kg/m3; in data set [2] (293.15 K), 1488.64 ± 0.46 kg/m3; in data set [2] (298.15 K), 1479.15 ± 0.45 kg/m3; in data set [2] (303.15 K) it was 1469.61 ± 0.45 kg/m3; in data set [2] (308.15 K), 1460.03 ± 0.44 kg/m3; in data set [2] (313.15 K) it was 1450.41 ± 0.43 kg/m3.
As to `CCCCO` [butan-1-ol], the mass density was determined as 813.373 ± 0.24 kg/m3 in data set [2] (288.15 K); 809.573 ± 0.24 kg/m3 in data set [2] (293.15 K); 805.762 ± 0.25 kg/m3 in data set [2] (298.15 K); 801.923 ± 0.25 kg/m3 in data set [2] (303.15 K); 798.053 ± 0.25 kg/m3 in data set [2] (308.15 K); 794.147 ± 0.25 kg/m3 in data set [2] (313.15 K).
